Structures are written as SMILES. Bounds are passed on as bounds.

One may read the IC50 as the concentration that gives 50% inhibition.

Common to all, as to assay type: biochemical
One assay concerns the target T1, JAK3 (Homo sapiens, UniProt P52333).
T1 construct: 5 μl of catalytic domain recombinant Kinase enzyme+Tyr peptide substrate (Invitrogen, Calif.); purchased Invitrogen
Description: Z'-LYTE kinase assay, JAK3 tyrosine phosphorylation activity. In outline:
(§1)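 Compounds are serially diluted 1:10 in DMSO and tested in duplicate at 1% final DMSO. Each recombinant catalytic domain phosphorylates the Tyr6 FRET peptide with ATP for 1 h at room temperature, then a site-specific protease cleaves unphosphorylated peptide over 1 h before coumarin/fluorescein emission is read.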

The target in the next assay is T2, JAK2 (Homo sapiens, UniProt O60674).
T2 construct: 5 μl of catalytic domain recombinant Kinase enzyme+Tyr peptide substrate (Invitrogen, Calif.); purchased Invitrogen
T2 sequence (O60674 849-1124 limits assumed): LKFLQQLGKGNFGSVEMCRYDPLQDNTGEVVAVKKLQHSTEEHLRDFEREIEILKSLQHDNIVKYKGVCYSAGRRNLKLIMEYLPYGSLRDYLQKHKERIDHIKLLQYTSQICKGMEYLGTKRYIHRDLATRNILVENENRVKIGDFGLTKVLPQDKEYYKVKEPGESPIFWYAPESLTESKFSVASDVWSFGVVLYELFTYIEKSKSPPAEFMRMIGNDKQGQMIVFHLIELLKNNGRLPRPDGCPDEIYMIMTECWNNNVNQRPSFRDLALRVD
The experiment in a line: Z'-LYTE kinase assay, JAK2 tyrosine phosphorylation activity. In outline: as §1

For another assay, the target named is T3, TYK2 (Homo sapiens, UniProt P29597).
T3 construct: 5 μl of catalytic domain recombinant Kinase enzyme+Tyr peptide substrate (Invitrogen, Calif.); purchased Invitrogen
T3 sequence (P29597 897-1176 limits assumed): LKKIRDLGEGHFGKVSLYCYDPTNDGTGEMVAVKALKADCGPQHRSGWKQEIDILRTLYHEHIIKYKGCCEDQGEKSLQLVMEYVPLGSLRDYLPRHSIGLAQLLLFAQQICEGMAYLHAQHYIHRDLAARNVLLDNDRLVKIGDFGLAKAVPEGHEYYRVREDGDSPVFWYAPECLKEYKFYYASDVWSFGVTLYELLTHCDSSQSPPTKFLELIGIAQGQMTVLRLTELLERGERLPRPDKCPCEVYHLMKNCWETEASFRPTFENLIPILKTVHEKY
The experiment in a line: Z'-LYTE kinase assay, TYK2 tyrosine phosphorylation activity. In outline:
as §1

A further assay has as its target T4, JAK1 (Homo sapiens, UniProt P23458).
T4 construct: 5 μl of catalytic domain recombinant Kinase enzyme+Tyr peptide substrate (Invitrogen, Calif.); purchased Invitrogen
Description: Z'-LYTE kinase assay, JAK1 tyrosine phosphorylation activity. The following applies: read-out: JAK 1 IC50. In outline: as §1

T1 sequence (P52333 822-1111 limits assumed): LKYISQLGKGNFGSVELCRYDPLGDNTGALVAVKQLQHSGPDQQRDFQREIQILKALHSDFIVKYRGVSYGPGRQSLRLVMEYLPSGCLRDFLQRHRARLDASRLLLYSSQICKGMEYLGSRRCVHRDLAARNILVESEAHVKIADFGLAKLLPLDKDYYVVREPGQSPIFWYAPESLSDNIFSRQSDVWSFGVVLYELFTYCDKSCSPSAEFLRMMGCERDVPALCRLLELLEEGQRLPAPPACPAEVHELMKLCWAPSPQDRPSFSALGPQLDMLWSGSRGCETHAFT
T4 sequence (P23458 875-1153 limits assumed): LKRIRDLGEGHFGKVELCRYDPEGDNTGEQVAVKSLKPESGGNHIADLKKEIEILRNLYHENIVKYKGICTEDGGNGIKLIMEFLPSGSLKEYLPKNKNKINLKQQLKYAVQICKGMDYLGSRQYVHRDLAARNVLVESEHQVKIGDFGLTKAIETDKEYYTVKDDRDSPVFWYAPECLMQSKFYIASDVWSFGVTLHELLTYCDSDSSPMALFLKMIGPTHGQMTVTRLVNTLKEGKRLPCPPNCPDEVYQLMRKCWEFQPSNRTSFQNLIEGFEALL

With `COc1ccc(Nc2ncc(C(N)=O)c(NCc3cccc(F)c3)n2)cc1N(C)C(=O)N1CCCC1` [Example 240, 4-(3-fluorobenzylamino)-2-(4-methoxy-3-(N-methylpyrrolidine-1-carboxamido)phenylamino)pyrimidine-5-carboxamide], the half-maximal inhibitory concentration (IC50) is 100 to 1000 nM on JAK3, over 1000 nM at JAK2, over 1000 nM against TYK2 and over 1000 nM on JAK1.
As to `NC(=O)c1cnc(Nc2ccc(Cl)c(NC(=O)N3CCCC3)c2)nc1NC1CCCC1` [Example 167, 2-(4-chloro-3-(pyrrolidine-1-carboxamido)phenylamino)-4-(cyclopentylamino)pyrimidine-5-carboxamide], the IC50 lay within 10 to 100 nM against JAK3, 100 to 1000 nM on JAK2, 10 to 100 nM on TYK2 and 10 to 100 nM at JAK1.
As to `NC(=O)c1cnc(Nc2ccc(Cl)c(NC(=O)N3CCCC3)c2)nc1NCC1CCC1` [Example 263, 2-(4-chloro-3-(pyrrolidine-1-carboxamido)phenylamino)-4-(cyclobutylmethylamino)pyrimidine-5-carboxamide], the IC50 at JAK3, against JAK2, on TYK2 and at JAK1 was over 1000 nM each time.
In the case of `CC(=O)Nc1cc(Nc2ncc(C(N)=O)c(NCc3cccc(F)c3)n2)ccc1OCCN(C)C` [Example 228, 2-(3-acetamido-4-(2-(dimethylamino)ethoxy)phenylamino)-4-(3-fluorobenzylamino)pyrimidine-5-carboxamide], the IC50 on JAK3 was 1 to 10 nM; against JAK2, 10 to 100 nM; against TYK2 it was 10 to 100 nM; at JAK1, 100 to 1000 nM.
Turning to `CC(=O)Nc1cc(Nc2ncc(C(N)=O)c(NCc3cccc(F)c3)n2)ccc1OCCN1CCCC1` [Example 223, 2-(3-acetamido-4-(2-(pyrrolidin-1-yl)ethoxy)phenylamino)-4-(3-fluorobenzylamino)pyrimidine-5-carboxamide], the IC50 against JAK3 lay in the range of 1 to 10 nM; against JAK2, 1 to 10 nM; against TYK2, 10 to 100 nM; on JAK1, 10 to 100 nM.
For `CC(=O)Nc1cccc(Nc2ncc(C(N)=O)c(Nc3cccc4c3ccn4C)n2)c1` [Example 184, 2-(3-acetamidophenylamino)-4-(1-methyl-1H-indol-4-ylamino)pyrimidine-5-carboxamide], the IC50 against JAK3, on JAK2, against TYK2 and on JAK1 was 1 to 10 nM in each case.
Turning to `CC(C)CCNc1cc(Nc2cccc(NC(=O)N3CCCC3)c2)ncc1C(N)=O` [Example 328, 4-(isopentylamino)-6-(3-(pyrrolidine-1-carboxamido)phenylamino)nicotinamide], the IC50 is 10 to 100 nM against JAK3, 100 to 1000 nM against JAK2, 10 to 100 nM against TYK2 and 100 to 1000 nM on JAK1.
On to `CCC(C)CNc1nc(Nc2ccc(Cl)c(NC(=O)N3CCCC3)c2)ncc1C(N)=O` (stereo not drawn) [Example 250], for which the IC50 on JAK3 was in the range of 1 to 10 nM; at JAK2, 100 to 1000 nM; at TYK2, 10 to 100 nM; on JAK1, 10 to 100 nM.
As for `C[C@@H](Nc1nc(Nc2cccc(NC(=O)N3CCCCC3)c2)ncc1C(N)=O)c1ccccc1` [Example 220, (R)-4-(1-phenylethylamino)-2-(3-(piperidine-1-carboxamido)phenylamino)pyrimidine-5-carboxamide], the IC50 was 1 to 10 nM at JAK3, 10 to 100 nM on JAK2, 10 to 100 nM against TYK2 and 100 to 1000 nM at JAK1.
With `CC(=O)Nc1cccc(Nc2ncc(C(N)=O)c(NC3Cc4ccccc4C3)n2)c1` [Example 92, 2-(3-acetamidophenylamino)-4-(2,3-dihydro-1H-inden-2-ylamino)pyrimidine-5-carboxamide], the IC50 against JAK3, on JAK2, against TYK2 and at JAK1 was 10 to 100 nM throughout.
Consider `NC(=O)c1cnc(Nc2ccc(Cl)c(NC(=O)N3CCCC3)c2)nc1NCc1cccc(Cl)c1` [Example 173, 2-(4-chloro-3-(pyrrolidine-1-carboxamido)phenylamino)-4-(3-chlorobenzylamino)pyrimidine-5-carboxamide], for which the IC50 on JAK3 was 10 to 100 nM; on JAK2, 100 to 1000 nM; on TYK2, 100 to 1000 nM; on JAK1 it was over 1000 nM.
As for `CC(=O)Nc1cccc(Nc2ncc(C(N)=O)c(Nc3cccc4nn(C)cc34)n2)c1` [Example 186, 2-(3-acetamidophenylamino)-4-(2-methyl-2H-indazol-4-ylamino)pyrimidine-5-carboxamide], the IC50 at JAK3 is 10 to 100 nM; at JAK2, 10 to 100 nM; at TYK2 it was over 1000 nM; on JAK1, over 1000 nM.
On to `CC(=O)Nc1cc(Nc2ncc(C(N)=O)c(Nc3cccc4nsnc34)n2)ccc1OCCN1CCCC1` [Example 227, 2-(3-acetamido-4-(2-(pyrrolidin-1-yl)ethoxy)phenylamino)-4-(benzo[c][1,2,5]thiadiazo-4-ylamino)pyrimidine-5-carboxamide], for which the IC50 against JAK3 was in the range of 1 to 10 nM; on JAK2, 1 to 10 nM; against TYK2 it was 10 to 100 nM; on JAK1, 10 to 100 nM.
Turning to `CC(=O)Nc1cccc(Nc2cc(NCC3CC3)c(C(N)=O)cn2)c1` [Example 329, 6-(3-acetamidophenylamino)-4-(cyclopropylmethylamino)nicotinamide], the IC50 is 100 to 1000 nM at JAK3, 100 to 1000 nM on JAK2, 100 to 1000 nM on TYK2 and over 1000 nM on JAK1.
For `CNC(=O)c1cnc(Nc2cccc(NC(=O)COC)c2)nc1NCc1ccccc1` [Example 113, 4-(benzylamino)-2-(3-(2-methoxyacetamido)phenylamino)-N-methylpyrimidine-5-carboxamide], the half-maximal inhibitory concentration (IC50) against JAK3 was 100 to 1000 nM; at JAK2, over 1000 nM; on TYK2 it was 100 to 1000 nM; on JAK1 it was over 1000 nM.
Turning to `C[C@@H]1CCCN1C(=O)Nc1cccc(Nc2ncc(C(N)=O)c(N[C@H](C)c3ccccc3)n2)c1` [Example 148, 2-(3-((R)-2-methylpyrrolidine-1-carboxamido)phenylamino)-4-((R)-1-phenylethylamino)pyrimidine-5-carboxamide], the IC50 on JAK3 lay within 1 to 10 nM; against JAK2 it was 10 to 100 nM; against TYK2 it was 10 to 100 nM; at JAK1 it was 100 to 1000 nM.
For the compound `CC(=O)Nc1cccc(Nc2cc(NCCC(C)C)c(C(N)=O)cn2)c1` [Example 327, 6-(3-acetamidophenylamino)-4-(isopentylamino)nicotinamide], the half-inhibitory concentration (IC50) is 10 to 100 nM against JAK3, 100 to 1000 nM on JAK2, 10 to 100 nM against TYK2 and 100 to 1000 nM at JAK1.
Consider `N#CCC(=O)Nc1cccc(Nc2ncc(C(N)=O)c(NCc3cccc(F)c3)n2)c1` [Example 257, 2-(3-(2-cyanoacetamido)phenylamino)-4-(3-fluorobenzylamino)-pyrimidine-5-carboxamide], for which the IC50 on JAK3 is under 1 nM; against JAK2, 1 to 10 nM; against TYK2, 1 to 10 nM; at JAK1, 10 to 100 nM.
Regarding `CNC(=O)c1cnc(Nc2cccc(NC(=O)COC)c2)nc1NC1Cc2ccccc2C1` [Example 114, 4-(2,3-dihydro-1H-inden-2-ylamino)-2-(3-(2-methoxyacetamido)phenylamino)-N-methylpyrimidine-5-carboxamide], the IC50 against JAK3, on JAK2, at TYK2 and on JAK1 was 10 to 100 nM in each case.
In the case of `CC(=O)Nc1cccc(Nc2ncc(C(N)=O)c(Nc3cccc4nsnc34)n2)c1` [Example 192, 2-(3-acetamidophenylamino)-4-(benzo[c][1,2,5]thiadiazo-4-ylamino)pyrimidine-5-carboxamide], the IC50 was 1 to 10 nM against JAK3, 10 to 100 nM on JAK2, 10 to 100 nM against TYK2 and over 1000 nM at JAK1.
In the case of `CN(C(=O)N1CCCC1)c1cc(Nc2ncc(C(N)=O)c(NCc3ccccc3)n2)ccc1Cl` [Example 241, 4-(benzylamino)-2-(4-chloro-3-(N-methylpyrrolidine-1-carboxamido)phenylamino)pyrimidine-5-carboxamide], the IC50 at JAK3 fell in the range of 10 to 100 nM; against JAK2, 100 to 1000 nM; on TYK2 it was 100 to 1000 nM; on JAK1, 100 to 1000 nM.
For `CC(=O)Nc1cccc(Nc2ncc(C(N)=O)c(NCc3cccc(Cl)c3)n2)c1` [Example 101, 2-(3-acetamidophenylamino)-4-(3-chlorobenzylamino)pyrimidine-5-carboxamide], the IC50 lay within 1 to 10 nM against JAK3, 1 to 10 nM against JAK2, 10 to 100 nM against TYK2 and 10 to 100 nM at JAK1.
In the case of `CC(=O)Nc1cccc(Nc2ncc(C(N)=O)c(NCc3ccncc3)n2)c1` [Example 189, 2-(3-acetamidophenylamino)-4-(pyridin-4-ylmethylamino)pyrimidine-5-carboxamide], the IC50 at JAK3 was 10 to 100 nM; at JAK2, 100 to 1000 nM; against TYK2, 10 to 100 nM; at JAK1 it was 100 to 1000 nM.
On to `CC(=O)N(C)c1cccc(Nc2ncc(C(N)=O)c(NCC3CC3)n2)c1` [Example 126, 4-(cyclopropylmethylamino)-2-(3-(N-methylacetamido)phenylamino)pyrimidine-5-carboxamide], for which the IC50 on JAK3, against JAK2, against TYK2 and at JAK1 was 10 to 100 nM throughout.

These data come from patent US8853230B2, “Inhibitors of JAK” (Portola Pharmaceuticals, Inc., priority 2009, dated 2014).
